From ChEMBL document CHEMBL4888484, “Replenishing the malaria drug discovery pipeline: Screening and hit evaluation of the MMV Hit Generation Library 1 (HGL1) against asexual blood stage Plasmodium falciparum ,using a nano luciferase reporter read-out” (2022) come the findings set out here.

Data set [1] is described as follows: Hit confirmation in dose-response curve in HepG2 cytotoxicity assay, at 72h. Type of data set: toxicity, cell-based. More on the design: timepoint 72 hour. To be noted: human, HepG2 cells.
Data set [2] relates to Plasmodium falciparum. As to the kind of experiment: Hit confirmation in dose-response curve in NF54 pLDH assay, at 72h. The note with it: NF54, Erythrocyte. Type of data set: functional, organism-based. The arrangement: timepoint 72 hour.
The subject of data set [3] is Plasmodium falciparum. As to the kind of experiment: Hit confirmation in dose-response curve in NF54 nanoGlo assay, at 12h. It is filed as functional, organism-based, Erythrocyte. The note with it: Plasmodium falciparum, NF54, Erythrocyte, 12 h. More on the design: timepoint 12 hour.
Data set [4] relates to Plasmodium falciparum. Put plainly: Hit confirmation in dose-response curve in Dd2 pLDH assay, at 72h. The note with it: Dd2, Erythrocyte. The arrangement: timepoint 72 hour. It is filed as functional, organism-based.
The test system of data set [5] is Plasmodium falciparum. As to the kind of experiment: Hit confirmation in dose-response curve in NF54 nanoGlo assay, at 72h. It is filed as functional, organism-based, Erythrocyte. The arrangement: timepoint 72 hour. The note with it: Plasmodium falciparum, NF54, Erythrocyte, 72 h.

Consider `CNCCc1c(-c2ccccc2)[nH]n(-c2ccccc2)c1=O`, for which, in data set [1], the IC50 – broadly, the midpoint of a concentration-inhibition curve – at 72 h was more than 10 µM. For the same molecule, the IC50 stood at 2.82 µM in the data set on Plasmodium falciparum [2], 2.75 µM with Plasmodium falciparum [3], 3.16 µM in the data set on Plasmodium falciparum [4] and 1.7 µM with Plasmodium falciparum [5].
In the same order, the values of `Cc1[nH]c2ncnc(NC(=O)c3cccc(-n4ccnn4)c3)c2c1C` are more than 10 µM, more than 10 µM, more than 10 µM, more than 10 µM and 8.13 µM.
For `CN1CCCN(c2ccnc3ccsc23)CC1`, in that order: more than 10 µM, 3.8 µM, 3.8 µM, 2.45 µM and 2.95 µM.
For `C[C@H]1CCC[C@@H](NCCc2ccccc2)CCC/C=C/c2cc(O)cc(O)c2C(=O)O1`, in that order: more than 10 µM, 2.95 µM, 8.51 µM, 2.29 µM and 0.759 µM.
Take `Cc1cc[n+]2c(-c3ccccc3)cc(-c3ccccc3)nc2c1`: the IC50 at 72 h in data set [1] is more than 10 µM. The IC50 in the data set on Plasmodium falciparum [2] is 2.57 µM; in the data set with Plasmodium falciparum [3], more than 10 µM; in the data set on Plasmodium falciparum [4] it was 1.78 µM; with Plasmodium falciparum [5], 1.51 µM.
`COc1ccc(C2=CN(CC(=O)c3ccc(Cl)cc3)C3=CCCCCN23)cc1`: the IC50 at 72 h in data set [1] was more than 10 µM. The IC50 is 2.95 µM in the data set on Plasmodium falciparum [2], more than 10 µM in the data set with Plasmodium falciparum [3], 3.16 µM with Plasmodium falciparum [4] and 2.95 µM in the data set with Plasmodium falciparum [5].
The molecule `CCC(=O)N(Cc1ccc(-c2ccc(Cl)cc2)o1)[C@H]1CCS(=O)(=O)C1` showed an IC50 at 72 h in data set [1] of more than 10 µM. Also, the IC50 was determined as 5.13 µM in the data set with Plasmodium falciparum [2], 3.39 µM in the data set on Plasmodium falciparum [3], 2.95 µM in the data set with Plasmodium falciparum [4] and 1.66 µM in the data set on Plasmodium falciparum [5].
For `CCCN1C(=O)c2ccccc2N2C(=O)CC[C@@]12C(=O)Nc1ccccc1`, in that order: more than 10 µM, 4.17 µM, 1.66 µM, 2.88 µM and 1.1 µM.
For `Cn1c(=O)c2c(-c3ccc(Cl)cc3)n(-c3cccc4cccc(N)c34)cc2n(C)c1=O`, in that order: more than 10 µM, 0.0182 µM, more than 10 µM, more than 10 µM and more than 10 µM.
In the same order, the values of `FC(F)Oc1ccc(-c2c[n+](-c3cccc(C(F)(F)F)c3)c3n2CCCCC3)cc1` are more than 10 µM, 2.14 µM, more than 10 µM, 8.91 µM and 2.45 µM.
Molecule `Cc1cc(C)cc(-c2cc3nc(C)cc(N4CCC(C(=O)NCc5cccc(F)c5)CC4)n3n2)c1` showed an IC50 at 72 h in data set [1] of more than 10 µM. The IC50 stood at 2.45 µM in the data set with Plasmodium falciparum [2], 4.37 µM in the data set with Plasmodium falciparum [3], 2.04 µM with Plasmodium falciparum [4] and 1.48 µM with Plasmodium falciparum [5].
Molecule `CCc1ccc(C(=O)Nc2cnc(-n3ccnc3)nc2)cc1` had an IC50 at 72 h in data set [1] of more than 10 µM. The IC50 in the data set on Plasmodium falciparum [2] is 3.55 µM; in the data set on Plasmodium falciparum [3], more than 10 µM; in the data set on Plasmodium falciparum [4], 6.31 µM; with Plasmodium falciparum [5] it was 5.01 µM.
As to `CCn1cc(-c2nc(-c3ccccc3C)no2)c(=O)c2cc(F)c(N3CCCCC3)cc21`, in data set [1], the IC50 at 72 h was more than 10 µM. In addition, the IC50 was 11 µM with Plasmodium falciparum [2], more than 10 µM with Plasmodium falciparum [3], 10.2 µM in the data set with Plasmodium falciparum [4] and 6.03 µM in the data set on Plasmodium falciparum [5].
`O=C(Nc1ccccc1)Nc1cnc(-n2ccnc2)nc1` registered an IC50 at 72 h in data set [1] of more than 10 µM. The IC50 came out at 3.55 µM in the data set on Plasmodium falciparum [2], 4.68 µM in the data set with Plasmodium falciparum [3], 5.5 µM in the data set with Plasmodium falciparum [4] and 2.63 µM with Plasmodium falciparum [5].
In the same order, the values of `CCOC(=O)c1cc(F)cc(S(=O)(=O)Nc2ccnc3ncnn23)c1` are more than 10 µM, more than 10 µM, 1.35 µM, more than 10 µM and 5.89 µM.
